Experimental data published in patent US20180371256A1, “BENZOCOUMARIN-BASED TWO-PHOTON ABSORBING FLUORESCENT DYE” (POSTECH ACADEMY-INDUSTRY FOUNDATION, priority 2017, published 2018).
“Also recorded” adds a separate entry of the source.

Assays:
[1] = Fluorescence spectra of benzocoumarin-based fluorescent dyes; assay type: physicochemical; settings: 10 μM dye in HEPES buffer, dioxane, ethanol, acetonitrile, dichloromethane, dimethylsulfoxide or toluene (1% DMSO); compared with Compounds 1c and 1g to 1l (FIG. 2)
Excerpt: (§1) The inventors confirmed absorption characteristics of representative compounds among Compounds 1g to 1k, which are two-photon absorbing near-infrared fluorescent dyes, and Compounds 1a to 1f and 1l to 4g, which are two-photon absorbing fluorescent dyes, of the present invention, and the results are shown in FIG. 2.
Specifically, to confirm the characteristics of fluorescent spectra of two-photon absorbing near-infrared fluorescent dyes, the inventors measured fluorescence spectra (measured using a photon technical international fluorescence system) by charging a quartz cell with a 1-cm path length with 4-(2-hydroxyethyl)-1-piperazineethanesulfonic acid (HEPES) buffer, […], dioxane, ethanol, acetonitrile, dichloromethane, dimethylsulfoxide, a toluene solution (containing 1% DMSO), which contains 10 μM each of Compounds 1a to 4g, and the wavelength of maximum absorbance is shown in FIG. 2.

[2] = UV/Vis absorbance spectra of benzocoumarin-based fluorescent dyes (wavelength of maximum absorbance); assay type: physicochemical; settings: 10 μM dye in HEPES buffer, PBS buffer, dioxane, ethanol, acetonitrile, dichloromethane, dimethylsulfoxide or toluene (1% DMSO); compared with Compounds 1c and 1g to 1l (FIG. 1)
Excerpt: as §1, with “1.” for “2.”
Specifically, to confirm the characteristics of UV/Vis absorbance spectra of benzocoumarin-based near-infrared fluorescent dyes and derivatives thereof, the inventors measured UV/Vis absorbance spectra (measured using a HP8453 UV/Vis absorbance spectrophotometer) by charging a quartz cell with a 1-cm path length with 4-(2-hydroxyethyl)-1-piperazineethanesulfonic acid (HEPES) buffer, phosphate-buffered saline (PBS) buffer, dioxane, ethanol, acetonitrile, dichloromethane, dimethylsulfoxide, or a toluene solution (containing 1% DMSO), which contains 10 μM each of Compounds 1a to 4g, and the wavelength of maximum absorbance is shown in FIG. 1.

[3] = tested on: mouse kidney tissue; assay: Two-photon fluorescence microscopy imaging of mouse kidney tissue slices treated with dye; parameters: species or system mouse (Balb/C); settings: 10 μM
Method: The inventors observed fluorescent changes by two-photon microscopy after mouse tissue was treated with Compound 1g of the present invention, and the result is shown in FIG. 3.
Specifically, to observe a two-photon microscopy image of mouse tissue treated with Compound 1g, kidney tissue of a Balb/C type mouse (6 weeks old) was used, and an experiment was carried out under a light-protected condition (dark room). The mouse kidney tissue was dissected and washed with a PBS buffer solution, and then each organ was frozen over dry-ice for 5 minutes. The frozen organs were crushed with a hammer, and then a tissue slice sample was prepared to a thickness of 16 μm using a cutter (Cryostat machine, Leica, CM3000 model). […] The tissue slice sample was put on a specimen block (Paul Marienfeld GMbH & Co.), and the specimen block was immersed in 4% paraformaldehyde for 10 minutes and washed with a PBS buffer solution, and then the tissue was fixed again using a mount solution (Gel Mount, BIOMEDA). The prepared tissue slice sample was immersed in a PBS buffer solution containing Compound 1g and acedan or IminoPOS at a concentration of 10 μM for 10 minutes, washed with a PBS buffer solution three times, and then fixed with 4% paraformaldehyde, followed by observation of fluorescence. […]

SMILES: O=c1oc2cc3cc(N4CCCC4)ccc3cc2cc1-c1ccncc1 [Compound 1a, 3-(pyridine-4-yl)-8-(pyrrolidine-1-yl)-2H-benzo[g]chromene-2-one]
- wavelengths of maximum absorbance (fluorescence spectra, FIG. 2) [1]: did not have a significant difference
- wavelengths of maximum absorbance [2]: did not have a significant difference

SMILES: CN(C)c1ccc2cc3cc(-c4ccncc4)c(=O)oc3cc2c1 [Compound 1b, 8-(dimethylamino)-3-(pyridine-4-yl)-2H-benzo[g]chromene-2-one]
- wavelengths of maximum absorbance (fluorescence spectra, FIG. 2) [1]: did not have a significant difference
- wavelengths of maximum absorbance [2]: did not have a significant difference

SMILES: CNc1ccc2cc3cc(-c4ccncc4)c(=O)oc3cc2c1 [Compound 1d, 8-(methylamino)-3-(pyridine-4-yl)-2H-benzo[g]chromene-2-one]
- wavelengths of maximum absorbance (fluorescence spectra, FIG. 2) [1]: did not have a significant difference
- wavelengths of maximum absorbance [2]: did not have a significant difference

SMILES: C=CCNc1ccc2cc3cc(-c4ccncc4)c(=O)oc3cc2c1 [Compound 1e, 8-(allylamino)-3-(pyridine-4-yl)-2H-benzo[g]chromene-2-one]
- wavelengths of maximum absorbance (fluorescence spectra, FIG. 2) [1]: did not have a significant difference
- wavelengths of maximum absorbance [2]: did not have a significant difference

SMILES: Nc1ccc2cc3cc(-c4ccncc4)c(=O)oc3cc2c1 [Compound 1f, 8-amino-3-(pyridine-4-yl)-2H-benzo[g]chromene-2-one]
- wavelengths of maximum absorbance (fluorescence spectra, FIG. 2) [1]: did not have a significant difference
- wavelengths of maximum absorbance [2]: did not have a significant difference

SMILES: C[n+]1ccc(-c2cc3cc4ccc(N5CCCC5)cc4cc3oc2=O)cc1.[OH-] [Compound 1g, 1-methyl-4-(2-oxo-8-(pyrrolidine-1-yl)-2H-benzo[g]chromene-3-yl)pyridinium trifluoromethanesulfonate]
- quality of two-photon fluorescence image ([3]; depths 25, 125, 175 μm, compared to acedan or IminoPOS (conventional two-photon dyes), FIG. 3c): superior fluorescence image; also recorded: high-definition and high-contrast image
- signal/noise (S/N) ratio of two-photon tissue image ([3]; two-photon excitation 900 nm, surface layer to middle depth (50 to 150 μm), compared to acedan (800 nm) and IminoPOS (850 nm), FIG. 3b): increased
